Reference: patent US20230372381A1, “COMPOSITIONS AND METHODS UTILIZING PROTEIN INHIBITORS FOR […] INHIBITION AND TREATMENT OF SARS-CoV-2” (Rensselaer Polytechnic Institute, priority 2020, published 2023)
Entries after “also recorded” stand apart in the source; their conditions may differ. Where two headings read alike, the source gives them in different places.

How the values were obtained:
[1] = target: T1, SARS-CoV-2 M^pro (Severe acute respiratory syndrome coronavirus 2, UniProt P0DTD1); experiment: M^pro protease inhibition (FRET assay); assay type: biochemical; settings: for Relative M^pro Inhibition: estimated IC50 class
[2] = Cytotoxicity in HEK 293T cells; settings: human
[3] = tested on: Vero E6 cells; experiment: Cytotoxicity MTT assay in Vero E6 cells; settings: cytotoxicity, Vero E6 Cells
Protocol: (§1) Cytotoxicity was also performed using the MTT assay (Roche), according to the manufacturer's instructions. Cytotoxicity was performed in uninfected VeroE6 cells with same compound dilutions and concurrent with viral replication assay. All assays were performed in biologically independent triplicates.

[4] = tested on: SARS-CoV-2; experiment: microbe, parasite or virus in culture; assay type: cell-based
[5] = target: SARS-CoV-2 PL^pro (Severe acute respiratory syndrome coronavirus 2, UniProt P0DTD1); experiment: PL^pro fluorescence proteolysis assay (zRLRGG/AMC substrate); assay type: biochemical; settings: for Relative PL^pro Inhibition: estimated IC50 class
[6] = tested on: SARS-CoV-2; experiment: Combination antiviral (synergy) assay with remdesivir; assay type: cell-based; settings: for Synergy Score: combination with remdesivir, SynergyFinder, ZIP method; for interaction with remdesivir (additive or synergistic): inhibition of SARS-CoV-2 replication in combination with remdesivir
[7] = tested on: SARS-CoV-2; experiment: SARS-CoV-2 viral replication assay in Vero E6 cells; assay type: cell-based
[8] = target: T1, SARS-CoV-2 M^pro; experiment: M^pro 1D 1H-NMR proteolysis assay; assay type: biochemical; settings: 50 μM inhibitor
[9] = tested on: HEK 293T cells; experiment: Cytotoxicity in HEK 293T cells; settings: cytotoxicity, HEK 293T Cells
[10] = in vitro; settings: human
[11] = in vitro; settings: African green monkey
Protocol: as §1

[12] = Cytotoxicity MTT assay in Vero E6 cells; settings: African green monkey
Protocol: as §1

[13] = Severe acute respiratory syndrome coronavirus 2, HEK-293T
[14] = Severe acute respiratory syndrome coronavirus 2, Vero C1008
[15] = Severe acute respiratory syndrome coronavirus 2, viral replication, HEK 293T Cells (hACE2-293T), read-out: IC50
[16] = Severe acute respiratory syndrome coronavirus 2, Vero C1008, viral replication, Vero E6 Cells, read-out: IC50

Row | Structure (SMILES) | Relative M^pro Inhibition [1] | CC50 [3] [µM] | Relative PL^pro Inhibition [5] | Synergy Score [6] | interaction with remdesivir (additive or synergistic) [6] | M^pro inhibition in the NMR assay [8] | inhibition of M^pro activity (words) [1] | inhibition of PL^pro protease activity (words) [5] | CC50 [10] [µM] | IC50 [4, 15] [µM] | IC50 [7, 16] [µM] | also measured
1 | CC[C@@H]1C[C@]1(NC(=O)[C@@H]1C[C@@H]2CN1C(=O)[C@H](C(C)(C)C)NC(=O)OCC(C)(C)CCCCc1cccc3c1CN(C3)C(=O)O2)C(=O)NS(=O)(=O)C1CC1 [VAN, vaniprevir] | strong (Strong inhibition corresponds to an estimated IC50 < about 20 μM) | 4.3 | strong (Strong inhibition corresponds to an estimated IC50 < about 20 μM) | +10.9 | synergistic | inhibitory activity comparable to telaprevir |  |  |  |  |  | inhibition of M^pro activity (words) ([1]; listed as Vaniprevir): good inhibitor of both M^pro and PL^pro; inhibition of M^pro activity (words) ([1]; listed as vaniprevir): inhibited both M^pro and PL^pro; CC50 [2]: > 50 µM; IC50 [4, 13]: 3 µM; inhibition of PL^pro protease activity (words) ([5]; listed as Vaniprevir): good inhibitor of both M^pro and PL^pro; inhibition of PL^pro protease activity (words) ([5]; listed as vaniprevir): did inhibit PL^pro protease activity; interaction with remdesivir (additive or synergistic) ([6]; listed as vaniprevir): synergized with remdesivir; IC50 [7, 14]: 6.2 µM
2 | C=C[C@@H]1C[C@]1(NC(=O)[C@@H]1C[C@@H]2CN1C(=O)[C@H](C(C)(C)C)NC(=O)O[C@@H]1C[C@H]1CCCCCc1nc3ccc(OC)cc3nc1O2)C(=O)NS(=O)(=O)C1CC1.O [GRZ, grazoprevir] | moderate (moderate to an estimated IC50 in the range 20-50 μM) | > 50 | moderate (moderate to an estimated IC50 in the range 20-50 μM) | +25.0 | synergistic | moderate inhibitors of M^pro | moderately inhibit; also recorded: inhibited both M^pro and PL^pro | did inhibit PL^pro protease activity |  |  |  | CC50 [9]: > 50 µM; IC50 ([4]; viral replication, HEK 293T Cells (hACE2-293T), read-out: IC50): 16.7 µM; interaction with remdesivir (additive or synergistic) ([6]; listed as grazoprevir): synergized with remdesivir; IC50 ([7]; viral replication, Vero E6 Cells, read-out: IC50): 10.8 µM
3 | C=C[C@@H]1C[C@]1(NC(=O)[C@@H]1C[C@@H](Oc2ncc(OC)c3ccc(Cl)cc23)CN1C(=O)[C@@H](NC(=O)OC(C)(C)C)C(C)(C)C)C(=O)NS(=O)(=O)C1CC1 [asunaprevir] |  |  |  |  |  |  | moderately inhibit |  |  |  |  | 
4 | COc1ccc2c(O[C@@H]3C[C@H]4C(=O)N[C@]5(C(=O)NS(=O)(=O)C6CC6)C[C@H]5/C=C\CCCCN(C)C(=O)[C@@H]4C3)cc(-c3nc(C(C)C)cs3)nc2c1C [SIM, simeprevir] | moderate (moderate to an estimated IC50 in the range 20-50 μM) | 2.1 | strong (Strong inhibition corresponds to an estimated IC50 < about 20 μM) | +30.2 | synergistic | moderate inhibitors of M^pro | moderately inhibit; also recorded: inhibited both M^pro and PL^pro | did inhibit PL^pro protease activity | > 50 | 2.3 | 4.2 | interaction with remdesivir (additive or synergistic) ([6]; listed as simeprevir): synergized with remdesivir
5 | Cc1cnc(C(=O)N[C@H]2CCCCC/C=C\[C@@H]3C[C@@]3(C(=O)NS(=O)(=O)C3CC3)NC(=O)[C@@H]3C[C@@H](Oc4nc5ccccc5c5ccccc45)CN3C2=O)cn1 [PAR, paritaprevir] | none (none indicates no observed inhibition of protease activity at drug concentrations of 50 μM) |  | moderate (moderate to an estimated IC50 in the range 20-50 μM) | +17.3 | synergistic |  | not M^pro | did inhibit PL^pro protease activity | > 100 | 0.55 | 6 | CC50 [11]: > 100 µM; interaction with remdesivir (additive or synergistic) ([6]; listed as paritaprevir): synergized with remdesivir
6 | CC(=O)Nc1ccc(C)c(C(=O)N[C@H](C)c2cccc3ccccc23)c1 [Compound 6] |  |  |  |  | synergy with remdesivir |  | not M^pro | specifically inhibits PL^pro |  |  |  | 
7 | CC(C)(C)NC(=O)N[C@H](C(=O)N1C[C@H]2[C@@H]([C@H]1C(=O)NC(CC1CCC1)C(=O)C(N)=O)C2(C)C)C(C)(C)C (stereo partly drawn) [BOC, boceprevir] |  |  |  | −7.6 |  |  |  |  | > 50 | 5.4 | 19.6 | CC50 [11]: > 50 µM
8 | CCCC[C@H](NC(=O)[C@@H]1[C@@H]2[C@H](CN1C(=O)[C@@H](NC(=O)NC1(CS(=O)(=O)C(C)(C)C)CCCCC1)C(C)(C)C)C2(C)C)C(=O)C(=O)NC1CC1 [NAR, narlaprevir] |  |  |  | −3.6 |  |  |  |  |  |  |  | CC50 [9]: 72 µM; CC50 [12]: > 20 µM; IC50 [4, 13]: 15 µM; IC50 [7, 14]: 7.7 µM
